Results: article PMC4669789, “Selective inhibition of HDAC8 decreases neuroblastoma growth in vitro and in vivo and enhances retinoic acid-mediated differentiation” (Cell Death & Disease, 2015)

Legend:
PBMCs = assay: Whole lysine acetylation in PBMC after intraperitoneal administration (FACS); type: in vivo, mouse; details: 50 mg/kg/d intraperitoneal; solvent 32.1
Description: Both inhibitors were intraperitoneally injected into NMRI Foxn1 nude mice in increasing doses from 40 up to 400 mg/kg per day for 2 × 5 days. Each dose was tested in a cohort of three animals. Resulting MTDs were validated within cohorts of eight animals for each inhibitor. […] As a reference, the blood of 12 untreated NMRI Foxn1 nude mice was analyzed. […] Vorinostat was used as a control for unselective HDAC inhibition.

NMRI Foxn1 nude mice [1] = assay: Determination of MTD and dose-limiting toxicities
Description: (§1) Each dose was tested in a cohort of three animals. Resulting MTDs were validated within cohorts of eight animals for each inhibitor. […] As a reference, the blood of 12 untreated NMRI Foxn1 nude mice was analyzed. […] Vorinostat was used as a control for unselective HDAC inhibition.
(§2) DLTs were monitored by observation of general condition and determination of body weight. We used several criteria for objectively measuring DLT. These included a decrease in body weight of ≥20% compared with baseline body weight, blood analysis of standard parameters for clinical chemistry and hematology (central laboratory of University Hospital Heidelberg, Heidelberg, Germany) and organ histopathology (formalin-fixed, paraffin-embedded organs), by H&E stain for the detection of necrosis (Prof. Dr. AD Gruber, Institute for Veterinary Pathology, Berlin, Germany).

[2] = Determination of MTD and dose-limiting toxicities; details: NMRI Foxn1 nude, mouse, in vivo, ip
Description: as §1, §2

[3] = Determination of inhibitor plasma half-life; type: in vivo, mouse
NMRI Foxn1 nude mice [4] = assay: Blood parameters (clinical chemistry, hematology) at MTD; type: in vivo; details: n=8, mean ±S.D.
Description: as §1, §2

PBMC = assay: Western blot of histone 4 and α-tubulin acetylation in PBMC of treated mice; type: in vivo, mouse; details: MTD concentrations, 2 h after intraperitoneal injection
Description: Whole blood (100 μl) was collected from the femoral vein of untreated athymic NMRI nude mice (HsdCpb:NMRI-Foxn1^nu; Harlan Laboratories Inc.), and respective animals were killed 2 h after intraperitoneal injection of substances. For the analysis of whole acetylation levels, mice were killed at half-life time of the inhibitors. Whole blood with heparin was added to RBC lysis buffer (diluted 1 : 10) (BioLegend, San Diego, CA, USA) at a ratio of 1 : 4. Next, red blood cell lysis was performed according to the manufacturer's instructions. PBMCs were lysed in SDS lysis buffer for western blot or processed for FACS analysis.
Western blot analysis was performed as described previously.[15] For detection of phosphoproteins, PhosStop (Roche, Penzberg, Germany) was added to the lysis buffer. The following antibodies were used for detection: anti-HDAC8 (H-145) (polyclonal; Santa Cruz, Santa Cruz, CA, USA), anti-acetyl tubulin (clone 6-11B-1; Sigma), anti-acetyl-histone H4 (polyclonal; Upstate, Lake Placid, NY, USA), anti-acetyl-SMC3 (provided by Prof. K Shirahige, University of Tokyo, Tokyo, Japan), anti p21^waf1/cip1 (clone CP74; Merck), anti-Trk (C-14) (polyclonal; Santa Cruz), anti-neurofilament-M (polyclonal; Merck), anti-β-actin (clone AC-15; Sigma), anti-P-CREB (Ser133; Cell Signaling, Danvers, MA, USA), anti-CREB (48H2; Cell Signaling) and anti-GAPDH (clone 6C5; Merck).

HDAC1 = HDAC1 (Homo sapiens, UniProt Q13547); assay: In vitro HDAC activity assay (Reaction Biology); type: biochemical; details: cell-free; symbol; read-out: IC50 values of HDAC8 inhibitors, HDAC1
Chain of HDAC1 (Q13547 9-321 limits assumed): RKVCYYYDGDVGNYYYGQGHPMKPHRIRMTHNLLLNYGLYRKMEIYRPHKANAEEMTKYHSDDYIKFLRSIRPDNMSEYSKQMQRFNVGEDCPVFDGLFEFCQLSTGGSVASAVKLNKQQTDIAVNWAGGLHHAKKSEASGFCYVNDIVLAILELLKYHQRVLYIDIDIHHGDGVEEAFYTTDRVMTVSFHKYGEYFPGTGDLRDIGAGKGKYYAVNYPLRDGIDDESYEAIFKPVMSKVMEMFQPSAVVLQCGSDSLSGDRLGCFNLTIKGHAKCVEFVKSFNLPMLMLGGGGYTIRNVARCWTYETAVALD

BE(2)-C cells = assay: Western blot of histone 4, α-tubulin and SMC3 acetylation; type: cell-based, human
Description: Western blot analysis was performed as described previously.[15] For detection of phosphoproteins, PhosStop (Roche, Penzberg, Germany) was added to the lysis buffer.

HDAC2 = HDAC2 (Homo sapiens, UniProt Q92769); assay: In vitro HDAC activity assay (Reaction Biology); type: biochemical; details: cell-free; read-out: IC50 values of HDAC8 inhibitors, HDAC2
Chain of HDAC2 (Q92769 9-322 limits assumed): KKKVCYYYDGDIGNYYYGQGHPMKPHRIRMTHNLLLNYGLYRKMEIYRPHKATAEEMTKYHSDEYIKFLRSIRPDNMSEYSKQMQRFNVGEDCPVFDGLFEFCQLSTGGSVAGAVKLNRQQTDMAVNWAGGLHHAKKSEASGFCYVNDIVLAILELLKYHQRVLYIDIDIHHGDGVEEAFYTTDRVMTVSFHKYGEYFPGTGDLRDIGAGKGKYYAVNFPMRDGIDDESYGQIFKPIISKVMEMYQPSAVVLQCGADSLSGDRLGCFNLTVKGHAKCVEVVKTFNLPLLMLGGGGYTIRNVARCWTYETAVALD
Description: (§3) Peptide substrate was conjugated with AMC. […] The HDAC reaction was performed at 30 °C for 2 h before adding the developer reagent. The free AMC was detected with excitation of 360 nm and emission 460 nm at kinetic mode for 90 min. IC50 values were calculated with GraphPad Prism version 3.0a (GraphPad Software Inc., San Diego, CA, USA).

HDAC7 = molecular target: T1, HDAC7 (Homo sapiens, UniProt Q8WUI4); assay: In vitro HDAC activity assay (Reaction Biology); type: biochemical; details: cell-free; read-out: IC50 values of HDAC8 inhibitors, HDAC7
T1 sequence (Q8WUI4 512-865 limits assumed): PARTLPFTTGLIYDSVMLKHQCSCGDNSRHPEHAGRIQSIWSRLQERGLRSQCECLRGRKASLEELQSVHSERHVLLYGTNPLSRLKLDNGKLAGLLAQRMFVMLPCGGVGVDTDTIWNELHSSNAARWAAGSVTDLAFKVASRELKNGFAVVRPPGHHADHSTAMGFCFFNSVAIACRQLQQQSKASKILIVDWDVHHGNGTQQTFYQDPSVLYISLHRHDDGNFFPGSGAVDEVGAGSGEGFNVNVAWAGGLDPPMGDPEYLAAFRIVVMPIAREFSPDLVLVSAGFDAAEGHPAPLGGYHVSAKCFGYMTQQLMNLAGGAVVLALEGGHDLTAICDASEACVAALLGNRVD
Description: as §3

HDAC5 = HDAC5 (Homo sapiens, UniProt Q9UQL6); assay: In vitro HDAC activity assay (Reaction Biology); type: biochemical; details: cell-free; read-out: IC50 values of HDAC8 inhibitors, HDAC5
Chain of HDAC5 (Q9UQL6 684-1028 limits assumed): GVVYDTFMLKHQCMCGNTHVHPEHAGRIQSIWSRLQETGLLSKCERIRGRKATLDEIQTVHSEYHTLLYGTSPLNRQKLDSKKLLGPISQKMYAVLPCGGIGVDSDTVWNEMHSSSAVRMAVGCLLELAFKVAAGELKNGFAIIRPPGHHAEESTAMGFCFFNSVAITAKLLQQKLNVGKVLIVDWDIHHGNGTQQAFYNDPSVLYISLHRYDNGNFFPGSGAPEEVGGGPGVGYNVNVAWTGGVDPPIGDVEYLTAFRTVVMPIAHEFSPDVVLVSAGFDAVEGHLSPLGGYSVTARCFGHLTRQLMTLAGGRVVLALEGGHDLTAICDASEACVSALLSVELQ
Description: as §3

[5] = tested on: neuroblastoma cell culture; assay: Intracellular whole lysine acetylation via FACS; type: cell-based, human
Description: Cells were collected, washed with PBS and fixed with 2% paraformaldehyde for 15 min at room temperature (RT). Cells were permeabilized by incubation with 50 μg/ml digitonin for 6 min at RT. Cells were incubated with primary antibody overnight at 4 °C. After staining with Cy3-conjugated anti-rabbit antibody, cells were analyzed by FACS using CellQuest software (BD Biosciences, San Jose, CA, USA). The following primary antibodies were used: anti-acetylated lysine (polyclonal; Cell Signaling) and anti-neurofilament-M (clone EP2460; Epitomics, Burlingame, CA, USA).

[6] = working concentrations: 40 μM Cpd2, 4 μM PCI-34051 and PCI-48000

Structure (SMILES): O=C(NO)c1cccc2ccccc12 [Cpd2, 1-naphthohydroxamic acid]
- whole acetyl-lysine mean fluorescent values (Blank-corrected), PBMCs (PBMCs): 39.2
- Dose-limiting toxicities (DLTs) (NMRI Foxn1 nude mice [1]; intraperitoneal, increasing doses 40 up to 400 mg/kg per day): weight loss and signs of liver toxicity
- body weight and blood parameters at MTD (NMRI Foxn1 nude mice [1]; mouse, in vivo): neither body weight (Figure 2a) nor blood parameters were critically changed
- MTD [2]: 50 mg/kg/day
- half-life ([3]; NMRI Foxn1 nude, mouse, plasma, ip, 100 mg/kg, intraperitoneal 100 mg/kg, NMRI Foxn1 nude mice, read-out: half-life in blood plasma): ~15 min
- plasma peak concentration ([3]; intraperitoneal, single dose of 100 mg/kg, mice): ~ 30 μM
- Hematocrit (NMRI Foxn1 nude mice [4]; normal range 0.3–0.4): 0.4±0.01 l/l
- Uric acid (NMRI Foxn1 nude mice [4]; normal range 0.4–3.2): 0.9 ± 1.0 mg/dL
- Leukocytes (NMRI Foxn1 nude mice [4]; normal range 1.8–6.1): 4.4 ± 1.8 nL⁻¹
- Calcium (NMRI Foxn1 nude mice [4]; normal range 2.1–2.4): 2.4 ± 0.4 mmol/L
- Potassium (NMRI Foxn1 nude mice [4]; normal range 3.8–6.4): 6.9 ± 2.2 mmol/L
- Erythrocytes (NMRI Foxn1 nude mice [4]; normal range 5.5–8.2): 7.6 ± 0.3 pL⁻¹
- Hemoglobin (NMRI Foxn1 nude mice [4]; normal range 9.4–12.7): 12.4 ± 0.7 g/dL
- Urea (NMRI Foxn1 nude mice [4]; normal range 17.4–38.3): 23.5 ± 6.4 mg/dL
- AP (NMRI Foxn1 nude mice [4]; normal range 62.5–117.6): 123.8±35.8 U/l
- Chloride (NMRI Foxn1 nude mice [4]; normal range 97.3–109.7): 99.9 ± 2.2 mmol/L
- Sodium (NMRI Foxn1 nude mice [4]; normal range 123.4–135.7): 136.8 ± 5.3 mmol/L
- Glucose (NMRI Foxn1 nude mice [4]; normal range 176.8–238.6): 187.8 ± 39.1 mg/dL
- Thrombocytes (NMRI Foxn1 nude mice [4]; normal range 242.5–806.8): 682.0 ± 151.1 nL⁻¹
- GGT (NMRI Foxn1 nude mice [4]; normal range −1.9 to 1.0): −2.0±1.0 U/l
- tubulin and histone 4 acetylation in PBMC (PBMC): absence of tubulin acetylation and absence of histone 4 acetylation
- IC50 (HDAC1): > 75.6 µM
- tubulin acetylation (HDAC6 off-target activity) (BE(2)-C cells; increasing concentrations far above IC50 values (up to 200 μM Cpd2, 100 μM PCI-34051)): induced tubulin acetylation
- SMC3 acetylation (HDAC8 substrate) (BE(2)-C cells; [6]): increase in acetylation level
- histone 4 acetylation (HDAC1-3 substrate) (BE(2)-C cells; [6]): absence of HDAC1-3 substrate acetylation
- tubulin acetylation (HDAC6 substrate) (BE(2)-C cells; [6]): absence of HDAC6 substrate acetylation
- IC50 (HDAC2): > 75.6 µM
- IC50 (HDAC7): > 75.6 µM
- IC50 (HDAC5): > 75.6 µM
- whole acetyl-lysine mean fluorescent values (Blank-corrected) ([5]; 20µM, solvent 34.4, second experiment): 56.9
- whole acetyl-lysine mean fluorescent values (Blank-corrected) ([5]; 40µM, solvent 24.7, IMR-32 cells, 24 h per Figure 1c): 36.9
